Key:
Listeria innocua = test: agar diffusion method, zones of inhibition; type: cell-based; set-up: key: +++ represents very strong growth inhibition; ++ represents strong growth inhibition; + represents mild growth inhibition; − represents no growth inhibition; details: 50 μl CFS of S. thermophilus strain 110 grown in TYL, 7 h and 24 h samples identical; target in BHI
Procedure: (§1) Bacteriocin activity is measured using an agar diffusion method (see, Gilbreth & Somkuti (2005)). Cultures of S. thermophilus strain 110 (NRRL B59671) and S. thermophilus strain LMD-9 are grown at 37° C. to an OD660 between 0.8 and 1.0 in 10 ml tryptone-yeast extract medium (Somkuti & Steinberg 1986) formulated with lactose (TYL) or glucose (TYG), or M17 medium (Becton Dickinson Co., Sparks, Md.) formulated with glucose (M17G) or lactose (M17L). Cells are pelleted by high-speed centrifugation for collection of cell-free supernatants (CFS). CFS (˜50 μl) are loaded into precast wells in an agar medium seeded with the target bacteria (0.5% v/v). Bacterial targets included: S. thermophilus strain ST113 in TYL, P. acidilactici in MRS (Becton Dickinson Co., Sparks, Md.), and L. innocua in BHI (Beckton Dickinson Co., Sparks, Md.). Plates are allowed to equilibrate overnight at 4° C., and then are incubated at 37° C. for 8 hours and are examined for the appearance of zones of inhibition.
(§2) S. thermophilus strain 110 (NRRL B59671) are grown overnight in tryptone-yeast extract-lactose (TYL) medium. The overnight culture is diluted in fresh TYL medium and grown for 7 or 24 hours. At each time point, a 1 ml sample is collected. […] The agar plates are monitored for growth of the target bacterium (agar medium becomes turbid), and the presence of clear zones around wells. […]

Pediococcus acidilactici [1] = test: agar diffusion method, zones of inhibition; type: cell-based; set-up: key: +++ represents very strong growth inhibition; ++ represents strong growth inhibition; + represents mild growth inhibition; − represents no growth inhibition; details: 50 μl CFS of S. thermophilus strain 110 grown in TYL, 7 h and 24 h samples identical; target in MRS
Procedure: as §1, §2

Propionibacterium acnes = test: agar diffusion method, zones of inhibition; type: cell-based; set-up: key to Growth Inhibitory Activity: +++ represents very strong growth inhibition; ++ represents strong growth inhibition; + represents mild growth inhibition; − represents no growth inhibition
Procedure: S. thermophilus strain 110 (NRRL B59671) are grown overnight in tryptone-yeast extract-lactose (TYL) medium. The overnight culture is diluted in fresh TYL medium and grown for 7 or 24 hours. At each time point, a 1 ml sample is collected. Bacterial cells are removed from the 1 ml samples by centrifugation; and the cell free supernatants (CFS) are tested for antimicrobial activity using an agar diffusion method (see Gilbreth and Somkuti (2005) and Example 2 supra). Target agar plates are prepared by inoculating molten microbiological medium with the overnight growth of susceptible bacteria (0.5% v/v; 250 μl of culture into 50 ml of medium). The inoculated molten agar is poured into square dishes and left to harden at room temperature (approximately 10 minutes). Wells are made in the solidified agar plates using a sterile glass Pasteur pipette, and each well is filled with 50 μl of CFS samples. The agar plates are stored overnight at 4° C. to allow for diffusion of the CFS into the agar medium. The agar plates with loaded wells are then incubated at 37° C. to allow for growth of the target bacterium. The agar plates are monitored for growth of the target bacterium (agar medium becomes turbid), and the presence of clear zones around wells. […]

Streptococcus mutans = test: agar diffusion method, zones of inhibition; type: cell-based; set-up: key to Growth Inhibitory Activity: +++ represents very strong growth inhibition; ++ represents strong growth inhibition; + represents mild growth inhibition; − represents no growth inhibition
Procedure: as §1
(§3) S. thermophilus strain 110 (NRRL B59671) are grown overnight in tryptone-yeast extract-lactose (TYL) medium. The overnight culture is diluted in fresh TYL medium and grown for 7 or 24 hours. At each time point, a 1 ml sample is collected. Bacterial cells are removed from the 1 ml samples by centrifugation; and the cell free supernatants (CFS) are tested for antimicrobial activity using an agar diffusion method (see Gilbreth and Somkuti (2005) and Example 2 supra). Target agar plates are prepared by inoculating molten microbiological medium with the overnight growth of susceptible bacteria (0.5% v/v; 250 μl of culture into 50 ml of medium). The inoculated molten agar is poured into square dishes and left to harden at room temperature (approximately 10 minutes). Wells are made in the solidified agar plates using a sterile glass Pasteur pipette, and each well is filled with 50 μl of CFS samples. The agar plates are stored overnight at 4° C. to allow for diffusion of the CFS into the agar medium. The agar plates with loaded wells are then incubated at 37° C. to allow for growth of the target bacterium. The agar plates are monitored for growth of the target bacterium (agar medium becomes turbid), and the presence of clear zones around wells. […] Furthermore, antimicrobial activity is shown to be associated with a low-molecular weight peptide based on gel electrophoretic analysis (Gilbreth & Somkuti 2005). Agar diffusion assays are repeated a minimum of three times.

Streptococcus pyogenes = test: agar diffusion method, zones of inhibition; type: cell-based; set-up: key to Growth Inhibitory Activity: +++ represents very strong growth inhibition; ++ represents strong growth inhibition; + represents mild growth inhibition; − represents no growth inhibition
Procedure: as §1, §3

Pediococcus acidilactici [2] = details: Gilbreth and Somkuti (2005); positive control; cited from earlier work
Streptococcus uberus = test: agar diffusion method, zones of inhibition; type: cell-based; set-up: key: +++ represents very strong growth inhibition; ++ represents strong growth inhibition; + represents mild growth inhibition; − represents no growth inhibition; details: 50 μl CFS of S. thermophilus strain 110 grown in TYL, 7 h and 24 h samples identical; target in TYL
Procedure: as §3

[3] = tested on: Lactobacillus acidophilus; test: agar diffusion method, zones of inhibition; type: cell-based; set-up: key: +++ represents very strong growth inhibition; ++ represents strong growth inhibition; + represents mild growth inhibition; − represents no growth inhibition; details: 50 μl CFS of S. thermophilus strain 110 grown in TYL, 7 h and 24 h samples identical; target in MRS
Procedure: as §3

Streptococcus agalactiae = test: agar diffusion method, zones of inhibition; type: cell-based; set-up: key: +++ represents very strong growth inhibition; ++ represents strong growth inhibition; + represents mild growth inhibition; − represents no growth inhibition; details: 50 μl CFS of S. thermophilus strain 110 grown in TYL, 7 h and 24 h samples identical; target in TYL
Procedure: as §3

[4] = tested on: Streptococcus dysgalactiae; test: agar diffusion method, zones of inhibition; type: cell-based; set-up: key: +++ represents very strong growth inhibition; ++ represents strong growth inhibition; + represents mild growth inhibition; − represents no growth inhibition; details: 50 μl CFS of S. thermophilus strain 110 grown in TYL, 7 h and 24 h samples identical; target in TYL
Procedure: as §3

Pediococcus acidilactici [5] = test: antimicrobial activity of recombinant BlpU, SDS-PAGE gel overlay method; type: cell-based; details: expressed in E. coli BL21 pGEX-6P-1/blpU; before or after Factor Xa cleavage of the GST tag; FIG. 6
Description: The nucleic acid sequence (162 base pairs; SEQ ID NO: 37) corresponding to the mature BlpU peptide (not including the 23 amino acid leader peptide) is amplified from the S. thermophilus strain 110 (NRRL-B59671) chromosome by PCR with the primers: forward: […] (BamHI—recognition site underlined; nucleotides encoding the Factor Xa recognition sequence (isoleucine-glutamic acid-glycine-arginine) are italicized) (SEQ ID NO: 34) and reverse: […] (XhoI—recognition site underlined) (SEQ ID NO: 35). […] The DNA fragment is subsequently cloned into the pGEX 6P-1 plasmid (GE Healthcare Life Sciences, Piscataway, N.J.) at the BamHI and XhoI sites. The resulting plasmid (pGEX 6P-1/blpU) encodes for a fusion protein with the glutathione S transferase (GST) tag on the N-terminus of BlpU, and expression is under control of an isopropyl β-D-1-thiogalactopyranoside (IPTG) inducible promoter. The plasmid is transformed into E. coli strain BL21 for recombinant expression of the fusion protein. […] The eluent from the dialysis bag is recovered and analyzed by SDS-PAGE for the presence of a ˜31 kDa fusion protein. […] The cleaved product is analyzed by SDS-PAGE for the presence of BlpU (silver nitrate staining) and antimicrobial activity against Pediococcus acidilactici (gel overlay method; Gilbreth and Somkuti, 2005).

[6] = 50 μl CFS of S. thermophilus strain 110 grown in TYL, 7 h and 24 h samples identical, target in BHI

## thermophilin 110: mature bacteriocin produced by S. thermophilus strain 110, amino acids 24-76 of SEQ ID NO: 1 (SEQ ID NO: 36), about 5 kDa (GCSWGGFAKQGVATGVGNGLRLGIKTRTWQGAVAGAAGGAIVGGVGYGATCWW; listed as Streptococcus thermophilus)
Listeria innocua
  Growth Inhibitory Activity: +
Pediococcus acidilactici [1]
  Growth Inhibitory Activity: +++
Propionibacterium acnes; [6]
  Growth Inhibitory Activity: ++
Propionibacterium acnes; text summary of Table 4
  growth inhibitory activity against P. acnes (in words): strong growth inhibitory activity
Streptococcus mutans; 50 μl CFS of S. thermophilus strain 110 grown in TYL, 7 h and 24 h samples identical, target in Todd Hewitt
  Growth Inhibitory Activity: ++
Streptococcus mutans; text summary of Table 4
  growth inhibitory activity against S. mutans (in words): strong growth inhibitory activity
Streptococcus pyogenes; [6]
  Growth Inhibitory Activity: +++
Streptococcus pyogenes; text summary of Table 4
  growth inhibitory activity against S. pyogenes (in words): very strong growth inhibitory activity
Pediococcus acidilactici [2]
  zones of inhibition against P. acidilactici in prior studies: very strong zones of inhibition
Streptococcus uberus
  Growth Inhibitory Activity: +
[3]
  Growth Inhibitory Activity: +++
Streptococcus agalactiae
  Growth Inhibitory Activity: −
[4]
  Growth Inhibitory Activity: −
Pediococcus acidilactici [5]
  antimicrobial activity against P. acidilactici: inhibition zone
